Laboratory results from ChEMBL document CHEMBL1145620, “Synthesis and evaluation of sulfamide-type indolizidines as glycosidase inhibitors” (Bioorg Med Chem Lett, 2008).
Activity calls are given as the source filed them. The rule behind the calls is not given here.

What was measured:
[1] = (§1) Inhibition of yeast alpha-glucosidase; set-up: species or system Saccharomyces cerevisiae
Canavalia ensiformis = test: (§2) Inhibition of jack beans alpha-mannosidase
Cornu aspersum = test: Inhibition of snail beta-mannosidase
[2] = target: Alpha-galactosidase (Coffea arabica) (UniProt Q5DUH8); test: Inhibition of green coffee beans alpha-galactosidase
Sequence of Alpha-galactosidase (Coffea arabica) (Q5DUH8 as listed by the source): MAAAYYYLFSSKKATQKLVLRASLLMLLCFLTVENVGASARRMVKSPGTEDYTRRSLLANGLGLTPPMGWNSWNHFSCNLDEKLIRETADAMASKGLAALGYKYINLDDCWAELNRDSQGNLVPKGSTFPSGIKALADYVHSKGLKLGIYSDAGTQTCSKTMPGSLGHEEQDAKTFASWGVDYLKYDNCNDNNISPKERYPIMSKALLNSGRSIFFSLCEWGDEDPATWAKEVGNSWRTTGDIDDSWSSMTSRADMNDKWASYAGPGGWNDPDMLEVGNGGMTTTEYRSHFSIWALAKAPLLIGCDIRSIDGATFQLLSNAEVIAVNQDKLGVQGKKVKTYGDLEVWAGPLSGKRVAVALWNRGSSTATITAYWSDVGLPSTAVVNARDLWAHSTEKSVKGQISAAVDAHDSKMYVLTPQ

Prunus dulcis = test: Inhibition of almonds beta-glucosidase
[3] = target: T1, Uncharacterized protein (Sus scrofa) (UniProt I3LIR5); test: Inhibition of pig kidney trehalase
T1 sequence (whole entry): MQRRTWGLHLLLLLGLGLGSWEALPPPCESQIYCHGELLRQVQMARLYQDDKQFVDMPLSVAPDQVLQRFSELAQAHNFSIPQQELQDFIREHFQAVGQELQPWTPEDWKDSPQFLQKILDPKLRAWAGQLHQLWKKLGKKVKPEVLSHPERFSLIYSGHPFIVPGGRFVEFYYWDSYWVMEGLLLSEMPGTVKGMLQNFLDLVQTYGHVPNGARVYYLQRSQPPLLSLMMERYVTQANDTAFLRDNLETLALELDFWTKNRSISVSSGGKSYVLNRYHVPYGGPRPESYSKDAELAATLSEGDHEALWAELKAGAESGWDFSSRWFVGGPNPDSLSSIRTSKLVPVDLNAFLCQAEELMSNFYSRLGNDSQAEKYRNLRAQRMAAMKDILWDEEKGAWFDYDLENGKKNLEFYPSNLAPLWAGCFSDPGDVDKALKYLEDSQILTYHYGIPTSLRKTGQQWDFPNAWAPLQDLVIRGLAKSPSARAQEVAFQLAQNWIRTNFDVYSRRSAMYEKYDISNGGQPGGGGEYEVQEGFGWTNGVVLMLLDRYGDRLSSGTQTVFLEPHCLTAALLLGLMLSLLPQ

Saccharomyces cerevisiae [4] = test: as §1
Penicillium decumbens = test: Inhibition of Penicillium decumbens naringinase
Aspergillus niger = test: Inhibition of Aspergillus niger amyloglucosidase
Saccharomyces cerevisiae [5] = test: Inhibition of yeast isomaltase
[6] = as §2; set-up: species or system Canavalia ensiformis
[7] = target: T2, Beta-galactosidase (Bos taurus) (UniProt Q58D55); test: Inhibition of bovine liver beta-galactosidase
T2 sequence (whole entry): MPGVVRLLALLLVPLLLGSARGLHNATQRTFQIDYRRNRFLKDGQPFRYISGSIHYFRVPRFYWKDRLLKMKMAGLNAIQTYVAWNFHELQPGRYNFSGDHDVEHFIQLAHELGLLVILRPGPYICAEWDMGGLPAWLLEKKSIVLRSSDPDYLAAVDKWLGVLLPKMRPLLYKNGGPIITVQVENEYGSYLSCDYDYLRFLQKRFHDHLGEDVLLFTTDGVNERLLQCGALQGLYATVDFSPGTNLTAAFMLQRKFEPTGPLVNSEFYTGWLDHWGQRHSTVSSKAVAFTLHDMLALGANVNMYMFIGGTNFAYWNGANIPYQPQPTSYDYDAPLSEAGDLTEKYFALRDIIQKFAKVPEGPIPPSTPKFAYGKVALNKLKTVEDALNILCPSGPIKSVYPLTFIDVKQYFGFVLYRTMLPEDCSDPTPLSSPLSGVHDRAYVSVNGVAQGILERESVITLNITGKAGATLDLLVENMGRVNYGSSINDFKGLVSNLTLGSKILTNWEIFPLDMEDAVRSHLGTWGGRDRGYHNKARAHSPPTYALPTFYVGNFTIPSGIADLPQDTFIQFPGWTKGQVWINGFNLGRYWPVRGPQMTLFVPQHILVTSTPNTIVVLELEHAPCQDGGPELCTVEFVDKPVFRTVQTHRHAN

[8] = Inhibition of bovine liver beta-glucosidase; set-up: species or system Bos taurus

| SMILES | Ki [1] [µM] | Activity (Canavalia ensiformis) | Activity (Cornu aspersum) | further results |
| --- | --- | --- | --- | --- |
| O[C@@H]1[C@@H](O)[C@@H](O)N2C(=S)OC[C@@H]2[C@H]1O | 2.2 | Active | Active |  |
| O=C1NC[C@@H]2[C@@H](O)[C@H](O)[C@@H](O)[C@@H](O)N12 | 5700 | Active | Active |  |
| O=S1(=O)NC[C@@H]2[C@@H](O)[C@H](O)[C@@H](O)C(O)N21 (stereo partly specified) |  |  | inactive | Activity [2]: inactive; Activity (Prunus dulcis): inactive; Activity [3]: inactive; Activity (Saccharomyces cerevisiae [4]): inactive; Activity (Penicillium decumbens): inactive; Activity (Aspergillus niger): inactive; Activity (Saccharomyces cerevisiae [5]): inactive; Ki [6]: 320 µM; Activity [7]: inactive |
| O=C1OC[C@@H]2[C@@H](O)[C@H](O)[C@@H](O)[C@@H](O)N12 | 40 | Active | Active |  |
| O=S1(=O)NC[C@@H]2[C@@H](O)[C@H](O)[C@H](O)C(O)N21 (stereo partly specified) |  |  |  | Ki [6]: 150 µM |
| CCCC/N=C1/OC[C@@H]2[C@@H](O)[C@H](O)[C@@H](O)[C@@H](O)N12 |  | Active | Active | Ki [8]: 2.2 µM |
| O[C@@H]1[C@@H](O)[C@@H](O)N2C(=S)NC[C@@H]2[C@H]1O | 4200 | Active | Active |  |
